These results are taken from US20250115595A1, “INHIBITORS OF HYPOXIA-INDUCIBLE FACTORS” (The Johns Hopkins University, priority 2021, published 2025).

The term IC50 denotes the concentration that gives 50% inhibition.

For one experiment, the system named is HIF transcriptional activity. Briefly: Luciferase reporter assay (FLuc/RLuc) in hypoxic Hep3B-c1 cells. The following applies: Homo sapiens, FLuc/RLuc ratio, 1% O2, 24 hours. Format: cell-based. As for the experimental part:
The NCI CellMiner database contains expression data on 25,698 mRNAs in 60 human cancer cell lines that were exposed to 21,770 chemical compounds (Reinhold W C, et. al., Cancer Res. 2012; 72(14):3499-3511). The CellMiner database was interrogated for compounds that induced changes in gene expression highly correlated with those induced by acriflavine, but would be structurally unrelated to acriflavine. Compounds that satisfied these criteria were analyzed in Hep3B-c1 cells (Zhang H. et. al., Proc Natl Acad Sci USA. 2008; 105(50):19579-19586), which are stably transfected with: HIF dependent reporter plasmid p2.1, in which firefly luciferase (FLuc) coding sequences are located downstream from a hypoxia response element (HRE) and a basal SV40 promoter; and control reporter pSVR, in which Renilla luciferase (RLuc) coding sequences are downstream of the basal SV40 promoter only (FIG. 1A).
Hep3B-c1 cells (Zhang 2008), which are stably co-transfected with reporter plasmids p2.1, a hypoxia-inducible firefly luciferase reporter gene containing a hypoxia response element (HRE), and pSVR, a constitutively expressed Renilla luciferase reporter gene, were seeded on 24-well plates. Cells were treated with compounds the following day and exposed to 20% or 1% O2 for 24 hours. For transient transfection, cells were seeded, transfected with the listed plasmids and compounds, and exposed to 20% or 1% O2 for 24 hours. FLuc/RLuc ratios were determined using the Dual Luciferase Reporter Assay System (Promega) and the VICTOR Nivo plate reader (PerkinElmer).
Background: In a reporter assay the amount or activity of a reporter protein is the signal.
`Brc1ccc2c(-c3nc(-c4c[nH]c5ccc(Br)cc45)cs3)c[nH]c2c1` [Compound 11-88]: the IC50 was found to be 2.9 µM.
The same measure, in the same setting: next, `Brc1ccc2[nH]cc(-c3csc(-c4c[nH]c5ccccc45)n3)c2c1` [Compound 11-147B]: 2.92 µM; `Brc1ccc2c(-c3csc(-c4c[nH]c5ccccc45)n3)c[nH]c2c1` [Compound 12-58]: 3.09 µM.
On to `Brc1ccc2c(-c3nc(-c4cnc5ncccn45)cs3)c[nH]c2c1` [Compound 12-70C], for which the IC50 was found to be 2.31 µM.
The same measure, in the same setting: next, `O=c1[nH]c2ccc(-c3csc(-c4c[nH]c5ccccc45)n3)cc2o1` [Compound 12-93A]: 2.4 µM; `c1ccc2c(-c3nc(-c4cnc5ncccn45)cs3)c[nH]c2c1` [Compound 12-93F]: 2.48 µM.
On the same count and under the same terms, the result for `Fc1cccc2c(-c3nc(-c4c[nH]c5cc(Br)ccc45)cs3)c[nH]c12` [Compound 12-143] reads 2.6 µM.
The same measure, in the same setting: next, `Fc1ccc2c(-c3nc(-c4c[nH]c5cc(Br)ccc45)cs3)c[nH]c2c1` [Compound 12-147A]: 2.52 µM.
Take `Clc1ccc2c(-c3nc(-c4c[nH]c5cc(Br)ccc45)cs3)c[nH]c2c1` [Compound 12-147B]: the IC50 turned out to be 3.08 µM.
Still for that read-out and setting: next, `Brc1cccc2c(-c3csc(-c4c[nH]c5c(Br)cccc45)n3)c[nH]c12` [Compound 13-01]: 2.07 µM.
On the same count and under the same terms, the result for `Brc1ccc2c(-c3nc(-c4c[nH]c5c(Br)cccc45)cs3)c[nH]c2c1` [Compound 13-03] reads 2.69 µM.
Same read-out and setting: the result for `Brc1ccc2c(-c3csc(-c4c[nH]c5cc(Br)ccc45)n3)c[nH]c2c1` [Compound 32-134C] reads 2.3 µM.
On to `c1ccc2c(-c3csc(-c4c[nH]c5ccccc45)n3)c[nH]c2c1` [Compound 33-057A], for which the IC50 came to 2.86 µM.
On the same count and under the same terms, next, `c1ccc2c(-c3nsc(-c4c[nH]c5ccccc45)n3)c[nH]c2c1` [Compound 33-063, 3,5-di(1H-indol-3-yl)-1,2,4-thiadiazole]: 2.2 µM.
For `c1ccc2c(-c3nnc(-c4c[nH]c5ccccc45)o3)c[nH]c2c1` [Compound 33-087], the IC50 was 2.51 µM.
On the same count and under the same terms, next, `Brc1ccc2[nH]cc(-c3nnc(-c4c[nH]c5ccccc45)o3)c2c1` [Compound 33-093B]: 2.7 µM.
The same measure, in the same setting: the result for `Brc1ccc2[nH]cc(-c3nnc(-c4c[nH]c5ccc(Br)cc45)o3)c2c1` [Compound 33-103B] reads 2.87 µM; that for `Brc1ccc2c(-c3nnc(-c4c[nH]c5cc(Br)ccc45)o3)c[nH]c2c1` [Compound 33-103C], 2.8 µM; that for `O=c1[nH]cc(-c2c[nH]c3ccccc23)nc1-c1c[nH]c2ccccc12` [Compound 33-123], 3.24 µM.
The same measure, in the same setting: next, `c1cc(-c2c[nH]c3ccccc23)nc(-c2c[nH]c3ccccc23)c1` [Compound 34-090]: 1.83 µM; `c1ccc2c(-c3cncc(-c4c[nH]c5ccccc45)n3)c[nH]c2c1` [Compound 34-110]: 1.27 µM; `Clc1ncc(-c2c[nH]c3ccccc23)nc1-c1c[nH]c2ccccc12` [Compound 34-146]: 2.04 µM.
As to `c1ccc2c(-c3ccnc(-c4c[nH]c5ccccc45)n3)c[nH]c2c1` [Compound 35-020], the IC50 is 2.37 µM.
Same read-out and setting: next, `c1ccc2c(-c3cc(-c4c[nH]c5ccccc45)[nH]n3)c[nH]c2c1` [Compound 35-092]: 2.07 µM; `c1ccc2c(-c3cc(-c4c[nH]c5ccccc45)on3)c[nH]c2c1` [Compound 35-140]: 1.94 µM.

The test system of the next experiment is HIF target genes. As to the kind of experiment: RT-qPCR of HIF target gene expression in Hep3B cells. In kind it is cell-based, human.
Details: not given
As for the experimental part:
Based on hit compound 11-88, a number of analogs were prepared in which either halogen substitutions to the indole groups were altered or the central thiazole was replaced by imidazole, isoxazole, oxadiazole, oxazole, pyrazinone, pyridazine, pyrazine, pyrazole, pyridine, thiadiazole, triazine, or triazole. […] The bis-bromoindole thiazole 32-134D and the bis-indole thiadiazole 33-063 (FIGS. 1B and 1C) were further characterized with respect to endogenous HIF target gene expression in Hep3B cells. […] For comparison, we tested the effect of PT2385, which inhibited EPO, NDRG1, ANGPTL4, and VEGFA expression but had no effect on CA9, which is consistent with its HIF-2-selective mechanism of action (Wallace E M et al., Cancer Res. 2016; 76(18):5491-5500). None of the compounds had any effect on RPL13A expression, which is neither hypoxia-induced nor HIF-regulated (FIG. 3).
(§1) Human Hep3B and mouse Hepa1-6 cells were purchased from ATCC and grown in high-glucose (4.5 mg/ml) Dulbecco's modified Eagle's medium supplemented with 10% (vol/vol) fetal bovine serum and […] at 37° C. in a 5% CO2/95% air incubator (20% O2). Human cell line identity was authenticated by analysis of short tandem repeats, and all cell lines were maintained mycoplasma free, using PCR-based assays conducted at the Johns Hopkins University Genetic Resources Core Facility. Cells were subjected to hypoxia in a controlled atmosphere chamber (PLAS Labs) with ambient gas mixture containing 1% O2 and 5% CO2.
RNA was extracted using TRIzol Reagent (ThermoFisher). Quantitative Real-time PCR was conducted using SYBR Green PCR Master Mix (BioRad) and reactions were run using the BioRad thermal cycler (BioRad). The mRNA expression of target genes was normalized to the expression of 18S rRNA and the fold change (FC) was calculated based on the threshold cycle (Ct) as
FC=2^−Δ(ΔCt) where ΔCt=Cttarget gene−Ct18S rRNA and Δ(ΔCt)=ΔCttreatment−ΔCtcontrol.
On the technique in general: In qPCR the cycle at which signal appears reflects the starting amount.
With `c1ccc2c(-c3nsc(-c4c[nH]c5ccccc45)n3)c[nH]c2c1` [Compound 33-063, 3,5-di(1H-indol-3-yl)-1,2,4-thiadiazole], the “hypoxia-induced expression of HIF target genes CA9, ANGPTL4, VEGFA, NDRG1 and EPO” value is reported as “inhibited”.
With `CS(=O)(=O)c1ccc(Oc2cc(F)cc(C#N)c2)c2c1[C@H](O)C(F)(F)C2` [PT2385, reference compound], the CA9 expression result was “no effect”; the “EPO, NDRG1, ANGPTL4 and VEGFA expression” value is on record as “inhibited”.

In a further experiment the test system is Hepa1-6 mouse HCC cells. As to the kind of experiment: RT-qPCR of hypoxia-induced mRNAs in Hepa1-6 cells. Format: cell-based. The following applies: hypoxic Hepa1-6 cells. As for the experimental part: Effects of 32-134D on Hepa1-6 mouse HCC cells and tumors. […] Thus, 32-134D inhibits the ability of hypoxic HCC cells to increase O2 delivery by stimulating angiogenesis (Angpt14, Pgf, Vegfa) or […] anaerobic metabolism by increasing glycolytic flux (Glut1, Pgk1, Ldha).
as §1
RNA was extracted using TRIzol Reagent (ThermoFisher). Quantitative Real-time PCR was conducted using SYBR Green PCR Master Mix (BioRad) and reactions were run using the BioRad thermal cycler (BioRad). The mRNA expression of target genes was normalized to the expression of 18S rRNA and the fold change (FC) was calculated based on the threshold cycle (Ct) as […]
For the compound `c1ccc2c(-c3nsc(-c4c[nH]c5ccccc45)n3)c[nH]c2c1` [Compound 33-063, 3,5-di(1H-indol-3-yl)-1,2,4-thiadiazole], the “hypoxia-induced expression of mRNA encoding Angpt14, Pgf, Vegfa and Pgk1” value is recorded as “significant dose-dependent inhibition”.
Regarding `CS(=O)(=O)c1ccc(Oc2cc(F)cc(C#N)c2)c2c1[C@H](O)C(F)(F)C2` [PT2385, reference compound], the “expression of Pgk1 mRNA” value is “no effect”.

The experiment is the same for the next values; noted with them: hypoxic Hepa1-6 cells, compared with 33-063 and 32-134D.
Take `CS(=O)(=O)c1ccc(Oc2cc(F)cc(C#N)c2)c2c1[C@H](O)C(F)(F)C2` [PT2385, reference compound]: the “Angpt14, Pgf, and Vegfa mRNA expression” value is given as “less potent inhibitor”.

Another experiment has as its system advanced HCC.
Assay: not given
The following applies: advanced HCC patients; cited from earlier work.
For the compound `CNC(=O)c1cc(Oc2ccc(NC(=O)Nc3ccc(Cl)c(C(F)(F)F)c3)cc2)ccn1` [sorafenib], the survival benefit is listed as 2-3 months.
